Where “and” joins values, the source holds several entries; their conditions need not be identical. Equal entries are not always repeated. Where two headings read alike, the source gives them in different places.
Assays:
guinea pig eyes = test: Toxicity test of intravitreally administered amphiregulin (guinea pigs); assay type: in vivo
Experimental: Methods and Material: Two to three-week old guinea pigs were divided into four groups:
animals that received an intravitreal administration of amphiregulin (dose: 10 ng in 5 μl) into one eye and an intravitreal administration of vehicle into the contralateral eye (n=4),
animals that received an intravitreal administration of amphiregulin (dose: 10 ng in 5 μl) into both eyes (n=4),
an animal that received intravitreal administration of amphiregulin (dose: 10 ng in 5 μl) into one eye with the contralateral eye left untreated (n=1), and
animals with both eyes left intact (n=2).
All animals were treated in accordance with the ARVO (association for Research in Vision and Ophthalmology) Statement for the Use of Animals in Ophthalmic and Vision Research and the EC Directive 86/609/EEC for animal experiments. The animals were housed at a constant temperature (22±1° C.) and in a light-controlled environment (lights on from 7 am to 7 pm) with ad libitum access to food and water.
All animals with injections received two intravitreal injections at an interval of ten days.
At each time point, the eyes were inspected for signs of toxicity. Ten days after the second injection, the animals were sacrificed by an overdose of anesthetics. Ocular biometry was performed at baseline, prior to each injection, and prior to the sacrifice of animals. The sonographic ocular biometry was performed using Aviso, The Ultrasound Platform (Quantel Medical, France) under general anesthesia, on the follow-up days 15, 25, 35 and prior the sacrifice on day 45.
After the sacrifice, the eyes of the animals were removed, post-fixed overnight in 4% paraformaldehyde, and embedded in optimal cutting temperature compound, cryosectioned and immunostained against glial activation marker (glial fibrillary acidic protein), microglial cell marker (lba-1), native guinea pig amphiregulin, and injected amphiregulin; or they were embedded in paraffin, sectioned and stained with hematoxylin and eosin for general histologic examination and histomorphometric retinal thickness measurements. In addition, the tissue was stained for apoptotic cell death detection applying the TUNEL method.

bovine RPE cell [1] = conditions: bovine RPE cells after incubation with growth factor; cited from earlier work
bovine RPE cell [2] = conditions: bovine RPE cells; cited from earlier work
[3] = test system: eye of patient with geographic atrophy; assay type: in vivo, human; conditions: for foveolar zone thickness upon optical coherence tomography: 69 μm at baseline
Description: Optical coherence tomography images of the fundus signs were unchanged. • On the 7th day after the injection, the eye appeared to be untouched, the conjunctival injection had subsided. Visual acuity had improved from 0.03 before the injection to 0.1. […] Upon optical coherence tomography, the foveolar zone increased in thickness from 69 μm at baseline to 71 μm at seven days after the injection, and to 73 μm two weeks later (FIGS. 3a, b).

RPE D407 cells = conditions: through both PI3K and ERK/MAPK pathways; cited from earlier work
adult rabbits' eyes = test: Toxicity test of intravitreally administered EGF (rabbits); assay type: in vivo, rabbit; conditions: for Intraocular pressure (IOP): injected right eye (OD), 100 ng EGF intravitreal
Experimental: The injections were performed in the upper right quadrant of the eyes in a distance of 3-4 mm from the limbus. At baseline of the study, and at specific dates after the injection the animals were examined using photography of the external eye and anterior and posterior segment of the eye, tonometry, optical coherence tomography (OCT) of the posterior fundus, and fundus photography. Four weeks after a third injection, the animals were sacrificed and the globes were histomorphometrically examined.
After sacrificing the animals, the eyes were enucleated, immediately fixed in a solution of 1% glutaraldehyde and 4% formaldehyde, and kept in that solution for seven days at room temperature. The sagittal, vertical and horizontal globe diameter were subsequently measured. A central segment with a thickness of about 8 mm and running through the optic nerve head and the pupil was cut out of the fixed globes, dehydrated in alcohol, imbedded in paraffin, sectioned for light microscopy with a slide thickness of 4-6 μm, and stained with hematoxylin eosin.
The cell number in the three retinal layers containing cell nuclei was counted. The slides for apoptotic cell death were additionally stained using the TUNEL (terminal deoxynucleotidyl transferase dUTP nick end labeling) technique.

[4] = test system: eyes of AMD patients (geographic atrophy); test: Series of seven AMD patients treated with intravitreal EGF; assay type: in vivo, human
Description: A series of seven patients were consecutively treated. […] The patients underwent weekly to two-weekly ophthalmological follow-up examinations. Three patients (patients #1, 2, and 3) received a repeated intravitreal injection after an interval of three to four weeks.

EGFR = EGFR signaling via the PI3K/Akt pathway in RPE culture; assay type: cell-based; conditions: addition of EGF
ARPE-19 cell line [5] = test: RPE cell proliferation (scanning spectrophotometer); assay type: cell-based, human; conditions: dose-dependent; EGF 0.1, 10, 100 μg/L; EGF antibody 0.01, 1.0, 10 mg/L; PBS control
Experimental: (§1) Materials and Methods: The human ARPE-19 cell line was cultured in a standardized culture medium and incubated at 37° C. under 5% CO2. […] We examined the RPE cell proliferation using of a scanning spectrophotometer. In a second step, we examined the cell migration by a scratch assay.

[6] = test system: EGF-EGFR-MAPK signal transduction pathway; conditions: human RPE cells in culture; concentration-dependent manner; cited from earlier work
ARPE-19 cell line [7] = test: RPE cell migration (scratch assay); assay type: cell-based, human; conditions: dose-dependent; EGF 0.1, 10, 100 μg/L; EGF antibody 0.01, 1.0, 10 mg/L; PBS control
Experimental: as §1

[8] = injected eyes vs eyes injected with PBS or untouched eyes
[9] = after the repeated intravitreal injections
[10] = 0.75 μg EGF intravitreal, one line per patient (1-7)

## Amphiregulin
Guinea pig eyes; four groups, 10 ng in 5 μl intravitreal, two injections at ten days interval
  animal weight: did not differ in their weight at any time point analyzed
Guinea pig eyes; [8]
  TUNEL positive cell numbers: No significant increase
  microglial infiltration: No significant increase
  retinal gliosis: No significant increase
Guinea pig eyes; repeatedly intravitreally applied, guinea pigs (summary)
  intraocular inflammatory or toxic effect: did not result in an intraocular inflammatory or toxic effect

## acidic fibroblast growth factor [aFGF]
Bovine RPE cell [1]
  RPE cell migration: significantly enhanced
Bovine RPE cell [2]
  RPE cell DNA synthesis: stimulated

## basic fibroblast growth factor [bFGF]
Bovine RPE cell [1]
  RPE cell migration: significantly enhanced
Bovine RPE cell [2]
  RPE cell DNA synthesis: stimulated

## epidermal growth factor [EGF]
[3]; 7th day after the injection
  subjective vision: marked improvement in vision
[3]; 7th day after the injection, 0.03 before the injection
  Visual acuity: 0.1
[3]; after injection, central four measurement points, 11.3 dB before
  light differential sensitivity in the central zone (computer perimetry): 24.8 dB per measurement point
[3]; human, in vivo
  Intraocular Pressure: unchanged within normal limits
  conjunctival injection: had subsided
  finding on the surface of the eye: mixed moderate conjunctival injection
  pathological reactions of the anterior segment of the eye: no pathological reactions
[3]; seven days after the injection
  foveolar zone thickness upon optical coherence tomography: 71 μm
[3]; third day after injection
  central visual acuity: unchanged
  optical coherence tomography images of the fundus: unchanged
  peripheral vision: remained unchanged
  subjective vision (metamorphopsias): the distortions and curvatures of objects (metamorphopsias) disappeared
[3]; two weeks later
  foveolar zone thickness upon optical coherence tomography: 73 μm
RPE D407 cells
  survival of RPE D407 cells: stimulated survival of RPE D407 cells
Bovine RPE cell [1]
  RPE cell migration: significantly enhanced
Adult rabbits' eyes; [9]
  change in intraocular pressure (IOP) as measured by tonometry: No significant change
  change in retinal thickness as measured by OCT: No significant change
Adult rabbits' eyes; 5 Dec. 2018
  Intraocular pressure (IOP): 6 mmHg
Adult rabbits' eyes; 29 Dec. 2018
  Intraocular pressure (IOP): 8 mmHg
Adult rabbits' eyes; injected vs contralateral eyes, posterior pole, midpoint, equator, ora serrata region, all P-values>0.20
  cell count of the retinal layers (histomorphometry): did not differ significantly
Adult rabbits' eyes; rabbit eyes
  apoptotic cells in TUNEL staining: neither in the right eyes or in the left eyes, apoptotic cells were detected
Adult rabbits' eyes; rabbits, repeated intravitreal injections
  intravital examinations of the external eye and the anterior segment (toxicity, cataract): did not reveal any sign of toxicity or development of cataract
Adult rabbits' eyes; repeatedly intravitreally applied, rabbits (summary)
  intraocular inflammatory or toxic effect: did not result in an intraocular inflammatory or toxic effect
[4]; 0.75 μg EGF in 50 μl intravitreal, one line per patient (1-7), follow-up one to seven weeks
  Visual Acuity (Decimal) at last examination: 0.09 and 0.03 and 0.06 and 0.1 (2×) and 0.08 and 0.05
[4]; [10]
  Intraocular Pressure: 17 mmHg and 16 mmHg
  Quality of vision: Improved
[4]; 0.75 μg EGF intravitreal, one line per patient (1-7), last examination vs before injection
  Improvement in ETDRS letters: 3 ETDRS letters and 8 ETDRS letters and 9 ETDRS letters and 26 ETDRS letters and 6 ETDRS letters and 11 ETDRS letters and 0 ETDRS letters
[4]; besides conjunctival vessel dilatation or circumscribed subconjunctival hemorrhage at the site of the injection
  side effects: no other side effects were noted
[4]; none of the eyes beyond this value
  intraocular pressure after injection, upper bound in all eyes: ≤ 21 mmHg
[4]; out of seven patients, follow-up one week to seven weeks
  patients with improvement in measured visual acuity: six showed an improvement in their measured visual acuity
[4]; patients with geographic atrophy, intravitreal application (summary of Examples 1 and 2)
  visual function and macular morphology: improvement in visual function and macular morphology
[4]; patients, intravitreal application (summary statement)
  intraocular tolerability: well tolerated intraocularly without signs of intraocular inflammation or toxicity
[4]; seven patients
  cells in the anterior chamber fluid or vitreous cavity (slit lamp-based biomicroscopy): In none of the eyes
  central visual field (perimetry): also improved
  hemorrhages or other newly developed pathologies in the retina: none of the eyes revealed hemorrhages or other newly developed pathologies in the retina
  signs of intraocular inflammation, lens opacification, optic media clarity, intraocular pressure change: no signs of intraocular inflammation, lens opacification, changes in the clarity of the optic media, or any significant change in intraocular pressure
  thickness of the tissue in the foveolar region (fundus examination, OCT): tendency of an increase
EGFR
  EGFR signaling via the PI3K/Akt pathway: caused an increase
ARPE-19 cell line [5]
  ARPE-19 cell proliferation: increased with higher concentrations
[6]
  EGF-EGFR-MAPK signal transduction pathway induction: induces the EGF-EGFR-MAPK (mitogen-activated protein kinase) signal transduction pathway
ARPE-19 cell line [7]
  ARPE-19 cell migration: increased with higher concentrations
Bovine RPE cell [2]
  RPE cell DNA synthesis: stimulated

## insulin-like growth factor-1 [IGF-1]
Bovine RPE cell [1]
  RPE cell migration: significantly enhanced

## platelet-derived growth factor [PDGF]
Bovine RPE cell [1]
  RPE cell migration: significantly enhanced
Bovine RPE cell [2]
  RPE cell DNA synthesis: stimulated
